{"source": "patent US20220324770A1", "about": "“NITRIFICATION INHIBITORS” (The University of Melbourne, priority 2019, published 2022)", "key": {"[1]": {"system": "Dahlen soil", "assay": "Soil microcosm incubation (nitrification of applied ammonium), Dahlen soil", "settings": "for Nitrified NH4+—N (%) Day 3 / Nitrified NH4+—N (%) Day 7 / Nitrified NH4+—N (%) Day 14 / Nitrified NH4+—N (%) Day 21 / Nitrified NH4+—N (%) Day 28: 10 mol %"}, "[2]": {"system": "Horsham soil", "assay": "Soil microcosm incubation (nitrification of applied ammonium), Horsham soil"}, "[3]": {"system": "South Johnstone soil", "assay": "Soil microcosm incubation (nitrification of applied ammonium), South Johnstone soil", "settings": "for Nitrified NH4+—N (%) Day 3 / Nitrified NH4+—N (%) Day 7 / Nitrified NH4+—N (%) Day 14 / Nitrified NH4+—N (%) Day 21 / Nitrified NH4+—N (%) Day 28: 10 mol %", "experimental": "The soil used in this study was collected from four different locations in Victoria, Australia: (i) a wheat cropping soil from Horsham (36° 45′S, 142° 07′ E), (ii) a rotational cropping soil from Dahlen (36° 37′S, 142° 09′ E), (iii) a vegetable growing soil from Clyde (38° 08′S, 145° 20′ E), and (iv) a pasture soil from Terang (38° 15′S, 142° 52′E). In addition, a sugarcane cropping soil from South Johnstone in northern Queensland (17° 34′S, 145° 57′ E) was also studied. The water content of the soil was calculated before commencing each experiment, from samples that were oven-dried to constant weight. The soil's water-filled pore space (WFPS) was in the range 52%-61%, which is within the recommended 50-70% range for microbial activity due to oxygen and nutrient availability (Fichtner, T., et al., Applied Sciences, 2019, 9, 496).\nSoil microcosm incubations were carried out in 250 ml polypropylene specimen containers (Sarstedt, Germany), containing 18.24 g oven dry-weight equivalent of soil. Microcosms were re-wetted and pre-incubated at the test temperature for seven days to revive soil microbial activity. Following pre-incubation, the remaining volume to reach the desired water-filled pore spaces (WFPS %) was applied as one of the following treatment solutions; (NH4)2SO4(Control), (NH4)2SO4+DMPP, or (NH4)2SO4+one of Compounds 1-23. Each treatment was applied in triplicate per soil type, so that n=3 at each time point.\nTreatment solutions were prepared such that each microcosm received (NH4)2SO4 at a rate of 100 mg N per kg soil, Compounds 1-23 at 10 mol % of applied N, or DMPP at one of 1.5, 3.6 or 10 mol % of applied N, referred to as L-DMPP, M-DMPP or H-DMPP respectively.\nThe microcosms were incubated for 0, 3, 7, 14, 21 or 28 days, where day 0 samples were extracted following 1-hour incubation post-treatment. Soil microcosms were aerated and moisture levels were replenished based on weight loss every few days throughout the incubation period.\nAt the end of each incubation period, soil microcosms were destructively sampled by treatment with 2M KCl (100 mL). After shaking for 1 hour, soil-KCl solutions were filtered (Whatman 42) before storing the filtrates at −20° C. until the conclusion of the experiment. All KCl extracts were then analysed by Segmented Flow Analysis (San++, Skalar, Breda, The Netherlands) for the concentration of nitrogen from ammonium (NH4^+—N) and nitrogen from NO3 and NO2 (NOx^−—N) after appropriate dilutions. Results are reported as the mean of three replicates, errors reported are standard errors of the mean.\nNitrification calculations were performed as previously reported (Aulakh, M., et al., Biology and Fertility of Soils 2001, 33, 258-263; Mahmood, T., et al., Soil Research 2017, 55, 715-722) without correction for the initial baseline concentrations of NH4^+—N or NO3^− N in the untreated soil. For each treatment nitrified NH4^+—N (%) was calculated according to eqn. 1:\nwhere [NH4^+—N]0 is the NH4^+—N concentration (in mg N kg^−1 soil) of the soil on day 0 and [NH4^+—N]t is the NH4^+—N concentration (in mg N kg^−1 soil) of the soil at a given time point t."}, "[4]": {"settings": "Dahlen soil, 35° C., after 28 days"}, "[5]": {"settings": "Table 4, Dahlen soil pH 7.3, 25° C."}, "[6]": {"settings": "Table 4, Dahlen soil pH 7.3, 35° C."}, "[7]": {"settings": "Horsham soil pH 8.8, 25° C., 10 mol %"}, "[8]": {"settings": "Horsham soil pH 8.8, 35° C., 10 mol %"}, "[9]": {"settings": "South Johnstone soil pH 5.0, 25° C."}, "[10]": {"settings": "South Johnstone soil pH 5.0, 35° C."}}, "data": [{"smiles": "CCCc1cn(CCC)nn1", "note": "[Compound 16, 1,4-dipropyl-1H-1,2,3-triazole]", "values": [{"measurement": "retaining NH4+—N vs uninhibited control treatment and DMPP", "setting": "[1]; Dahlen soil, 25° C., after 28 days", "value": "performed statistically better"}, {"measurement": "NOx−—N accumulation rate", "setting": "[1]; Dahlen soil, 35° C., 28-day incubation", "value": 1.8, "unit": "mg NOx−—N/kg soil/day"}, {"measurement": "ammonia consumption", "setting": "[1]; [4]", "value": 17, "unit": "%"}, {"measurement": "retaining NH4+ vs both DMPP treatment and control treatment", "setting": "[1]; [4]", "value": "performed statistically better"}, {"measurement": "Nitrified NH4+—N (%) Day 3", "setting": "[1]; [5]", "value": "8.8 ± 3.3", "unit": "%"}, {"measurement": "Nitrified NH4+—N (%) Day 7", "setting": "[1]; [5]", "value": "15.6 ± 5.0", "unit": "%"}, {"measurement": "Nitrified NH4+—N (%) Day 14", "setting": "[1]; [5]", "value": "16.4 ± 28.7", "unit": "%"}, {"measurement": "Nitrified NH4+—N (%) Day 21", "setting": "[1]; [5]", "value": "26.9 ± 4.6", "unit": "%"}, {"measurement": "Nitrified NH4+—N (%) Day 28", "setting": "[1]; [5]", "value": "37.3 ± 4.4", "unit": "%"}, {"measurement": "Nitrified NH4+—N (%) Day 3", "setting": "[1]; [6]", "value": "1.5 ± 1.4", "unit": "%"}, {"measurement": "Nitrified NH4+—N (%) Day 7", "setting": "[1]; [6]", "value": "6.0 ± 1.5", "unit": "%"}, {"measurement": "Nitrified NH4+—N (%) Day 14", "setting": "[1]; [6]", "value": "16.1 ± 4.5", "unit": "%"}, {"measurement": "Nitrified NH4+—N (%) Day 21", "setting": "[1]; [6]", "value": "29.8 ± 1.2", "unit": "%"}, {"measurement": "Nitrified NH4+—N (%) Day 28", "setting": "[1]; [6]", "value": "16.9 ± 2.6", "unit": "%"}, {"measurement": "Nitrified NH4+—N (%) Day 3", "setting": "[2]; Horsham soil pH 8.8, 25° C., inhibitors 10 mol % of applied N", "value": "8.9 ± 3.4", "unit": "%"}, {"measurement": "Nitrified NH4+—N (%) Day 7", "setting": "[2]; [7]", "value": "24.9 ± 3.0", "unit": "%"}, {"measurement": "Nitrified NH4+—N (%) Day 14", "setting": "[2]; [7]", "value": "44.2 ± 3.3", "unit": "%"}, {"measurement": "Nitrified NH4+—N (%) Day 21", "setting": "[2]; [7]", "value": "57.5 ± 3.4", "unit": "%"}, {"measurement": "Nitrified NH4+—N (%) Day 28", "setting": "[2]; [7]", "value": "70.9 ± 3.9", "unit": "%"}, {"measurement": "Nitrified NH4+—N (%) Day 3", "setting": "[2]; [8]", "value": "2.5 ± 4.5", "unit": "%"}, {"measurement": "Nitrified NH4+—N (%) Day 7", "setting": "[2]; [8]", "value": "22.3 ± 4.3", "unit": "%"}, {"measurement": "Nitrified NH4+—N (%) Day 14", "setting": "[2]; [8]", "value": "42.3 ± 4.6", "unit": "%"}, {"measurement": "Nitrified NH4+—N (%) Day 21", "setting": "[2]; [8]", "value": "74.9 ± 6.1", "unit": "%"}, {"measurement": "Nitrified NH4+—N (%) Day 28", "setting": "[2]; [8]", "value": "83.7 ± 6.1", "unit": "%"}, {"measurement": "retaining NH4+ vs uninhibited control treatment", "setting": "[2]; Horsham soil, 25° C., after 28 days", "value": "performed statistically better"}, {"measurement": "nitrification rates vs uninhibited control treatment", "setting": "[2]; Horsham soil, 35° C.", "value": "lower nitrification rates than the uninhibited control treatment"}, {"measurement": "Nitrified NH4+—N (%) Day 3", "setting": "[3]; South Johnstone soil pH 5.0, 25° C., negative = NH4+—N higher than day 0 (mineralisation)", "value": "−6.3 ± 0.8", "unit": "%"}, {"measurement": "Nitrified NH4+—N (%) Day 7", "setting": "[3]; [9]", "value": "−11.5 ± 0.8", "unit": "%"}, {"measurement": "Nitrified NH4+—N (%) Day 14", "setting": "[3]; [9]", "value": "−14.4 ± 0.7", "unit": "%"}, {"measurement": "Nitrified NH4+—N (%) Day 21", "setting": "[3]; [9]", "value": "−16.8 ± 1.2", "unit": "%"}, {"measurement": "Nitrified NH4+—N (%) Day 28", "setting": "[3]; South Johnstone soil pH 5.0, 25° C., day 28", "value": "−13.2 ± 0.7", "unit": "%"}, {"measurement": "Nitrified NH4+—N (%) Day 3", "setting": "[3]; [10]", "value": "−14.7 ± 1.9", "unit": "%"}, {"measurement": "Nitrified NH4+—N (%) Day 7", "setting": "[3]; [10]", "value": "−26.3 ± 1.7", "unit": "%"}, {"measurement": "Nitrified NH4+—N (%) Day 14", "setting": "[3]; [10]", "value": "−35.7 ± 2.4", "unit": "%"}, {"measurement": "Nitrified NH4+—N (%) Day 21", "setting": "[3]; [10]", "value": "−35.7 ± 0.6", "unit": "%"}, {"measurement": "Nitrified NH4+—N (%) Day 28", "setting": "[3]; South Johnstone soil pH 5.0, 35° C., day 28", "value": "−18.4 ± 2.3", "unit": "%"}, {"measurement": "retaining NH4+—N vs DMPP", "setting": "[3]; South Johnstone soil, 35° C.", "value": "performed statistically better than DMPP"}, {"measurement": "retaining NH4+—N and slowing NOx−—N growth vs fertilised control", "setting": "[3]; South Johnstone soil, 35° C., day 28", "value": "performed statistically better than the fertilised control"}]}]}
